Results from patent publication US10160948B2, “Pluripotent embryonic-like stem cells, compositions, methods and uses thereof” (ABT HOLDING COMPANY, priority 1999, dated 2018).
Marks after values point to notes of the source that are not given here.

Assays:
[1] = test system: progenitor stem cells; test: Proliferation and phenotypic responses to bioactive factors: progenitor cells; type: cell-based; settings: for Phenotypic Expression, Progenitor: presence and approximate distribution of differentiated phenotypes within the culture wells
Source text: (§1) Having access to mixed populations of progenitor stem cells, progenitor stem cell clones, and pluripotent stem cell clones permits one to address the influence of various bioactive factors (e.g. recombinant growth factors, purified compounds, and novel inductive factors) on the growth characteristics and phenotypic expression of these stem cells.
(§2) Cryopreserved cells are thawed and plated in MSC-1 at 5, 10, or 20×10^3 cells per well of gelatinized 24-well plates following the standard protocol. Twenty-four hours after initial plating the medium is changed to testing medium (TM) 1 to 6 (TM-1, TM-2, TM-3, TM-4, TM-5, or TM-6). TM-1 to TM-4 consist of Ultraculture (cat. no. 12-725B, lot. nos. OMO455 [TM-1], 1M1724 [TM-2], 2M0420 [TM-3], or 2M0274 [TM-4], Bio-Whittaker, Walkersville, Md.), medium (EMEM or Opti-MEM 0.01 mM β-mercaptoethanol), and 1% (v/v) antibiotic-antimycotic, pH 7.4. TM-5 consists of 98% (v/v) medium, 1% (v/v) HS, and 1% (v/v) antibiotic-antimycotic, pH 7.4. TM-6 consists of 98.5% (v/v) medium, 0.5% (v/v) HS, and 1% (v/v) antibiotic-antimycotic, pH 7.4. […] Four testing media (TM#'s 1-4), each containing various concentrations of Ultraculture, were used as. […] The four Ultraculture-based testing media were: TM-1=15% (v/v) Ultraculture (Lot no. OMO455): 84% (v/v) medium: 1% (v/v) antibiotics; TM-2=15% (v/v) Ultraculture (Lot no. 1M1724): 84% (v/v) medium: 1% (v/v) antibiotics; TM-3=50% (v/v) Ultraculture (Lot no. 2M0420): 49% (v/v) medium: 1% (v/v) antibiotics; and TM-4=75% (v/v) Ultraculture (Lot no. 2M0274): 24% (v/v) medium: 1% (v/v) antibiotics. Pre-incubation for 24 hr in testing medium alone is used to wash out any potential synergistic components in the MSC-1 medium. Twenty-four hours later the testing medium is changed to one of the following. For controls, TM-1 to TM-6 alone is used. To identify clones of progenitor cells, the medium is replaced with TM-1 to TM-6 containing 2 μg/ml insulin (Sigma), an agent that accelerates the appearance of phenotypic expression markers in progenitor cells (TABLE 12). To identify clones of pluripotent cells, the medium is replaced with TM-1 to TM-6 containing 10^−10 to 10^−6 M dexamethasone (Sigma), a general non-specific lineage-inductive agent (TABLE 13). Control and treated cultures are propagated for an additional 30-45 days with medium changes every other day. Four culture wells are used per concentration per experiment. During the 0-45 day time period the cultures are examined subjectively for changes in morphological characteristics on a daily basis. Alterations in phenotypic expression are correlated with the days of treatment and associated insulin or dexamethasone concentrations. The experiment is then repeated utilizing these parameters to confirm objectively the phenotypic expression markers using established histological, functional/histochemical, ELICA/flow cytometry, and molecular assays (TABLE 13).

[2] = test system: pluripotent stem cells; test: Proliferation and phenotypic responses to bioactive factors: pluripotent cells; type: cell-based; settings: for Phenotypic Expression, Pluripotent: presence and approximate distribution of differentiated phenotypes within the culture wells
Source text: as §1, §2

[3] = test system: cardiac myocytes; test: Beat rate of binucleated beating cells in dexamethasone-treated Swiss-3T3 cultures exposed to isoproterenol and propanolol; type: cell-based, mouse
Source text: The wells were then washed six times with EMEM+10% horse serum and viewed on a Nikon Diaphot with fluorescent attachment. • Cardiac muscle—Cardiac myocytes were identified based on their large binucleated nuclei and their reactions to inotropic and chronotropic agents.

[4] = test system: cells isolated from granulation tissue; test: Dexamethasone treatment of cells from granulation tissue (wound chambers), assays for phenotypes; type: cell-based, rat
[5] = test system: Swiss-3T3 cells; test: Dexamethasone treatment of Swiss-3T3 cells, assay of phenotypes; type: cell-based, mouse
Experimental: Frozen 3T3 cells were then thawed, cell viability was determined using 0.4% Typan Blue in PBS with a hemocytometer (Denhardt et al., 1991; Domin and Rozengurt, 1993), and the cells were plated in 24 well plates (Corning Glassworks, Corning, N.Y.), precoated with 1% gelatin at a density of 5000 cells/well. Cells were cultured in EMEM containing 10% horse serum and varying concentrations of dexamethasone (Sigma, Salom, Mo.). Four wells served as controls and received medium without dexamethasone. Four wells each received medium containing 10^−10 M, 10^−9 M, 10^−8 M, 10^−7 M, 10^−6 M dexamethasone. The medium was changed every other day and cultures were examined using phase contrast microscopy for the appearance of different phenotypes.
• Bone—The presence of calcified tissue was assayed by Von Kossa's staining of calcium phosphate as described by Humason. Briefly, the culture medium was removed, and the plates were rinsed twice with the DPBS. The cells were fixed with 0.5 ml of 10% formalin for 3-5 minutes, then rinsed four times with distilled water. One half of a milliliter of freshly prepared 2% silver nitrate solution was then added, and the cells were incubated in the dark for 10 minutes. After incubation, the silver nitrate solution was removed and the cells were rinsed five times with distilled water. Approximately 0.5 ml of distilled water was left on each well. The plate was exposed to bright light for 15 minutes against a white background to reflect light. The plates were again rinsed five times with distilled water and quickly dehydrated with 100% ethanol. The plates were made permanent with glycerin jelly. Confirmation of the presence of calcium phosphate was performed by pretreating selected cultures with 1% weight/volume [ethylene bis(oxyethylenenitrilo)]-tetraacetic acid, a specific calcium chelator, in Ca, MG-free buffer for 1 hour before incubation in the silver nitrate solution. • Muscle—The cells were stained with the MF-20 antibody to sarcomeric myosin (Hybridoma Bank, Ames Iowa) by means of a modified procedure of Young et. al., 1992b. […]

## TGF-β
[1]
  Proliferation, Progenitor: number of times the agent increased the DNA content per well versus its respective control: −
  Phenotypic Expression, Progenitor: F++
[2]
  Proliferation, Pluripotent: number of times the agent increased the DNA content per well versus its respective control: −^c
  activity on pluripotent and progenitor stem cells, in words: stimulated lineage-progression in fibrogenic progenitor cells, inhibited lineage-progression in all other progenitor cells, and had no effect on pluripotent cells
  Phenotypic Expression, Pluripotent: 0

## CC(C)NCC(O)c1ccc(O)c(O)c1 (stereo not shown) [Isoproteronol, isoproterenol]
[3]; cells treated with 10^−6 M isoproterenol
  beat rate: 85 beats per minute
[3]; n = 5, 10−6M
  Beats per minute: 87.4± * Beats per minute

## IGF-I: insulin-like growth factor-I
[1]
  Proliferation, Progenitor: number of times the agent increased the DNA content per well versus its respective control: 1 times
  Phenotypic Expression, Progenitor: All+++
[2]
  Proliferation, Pluripotent: number of times the agent increased the DNA content per well versus its respective control: 1 times
  activity on pluripotent and progenitor stem cells, in words: stimulated lineage-progression in all progenitor cells, but had no measurable effect on pluripotent cells
  Phenotypic Expression, Pluripotent: 0

## C[C@@H]1C[C@H]2[C@@H]3CCC4=CC(=O)C=C[C@]4(C)[C@@]3(F)[C@@H](O)C[C@]2(C)[C@@]1(O)C(=O)CO [Dex, dexamethasone]
[1]
  Proliferation, Progenitor: number of times the agent increased the DNA content per well versus its respective control: −
[2]
  Proliferation, Pluripotent: number of times the agent increased the DNA content per well versus its respective control: −
[4]
  dexamethasone concentrations at which cartilage nodules appeared: 10^−9-10^−6 M
[4]; after 3 weeks
  dexamethasone concentrations at which fibroblasts appeared: 10^−9-10^−7 M
[4]; first appeared at 2 weeks
  dexamethasone concentrations at which adipocytes appeared: 10^−8-10^−6 M
[5]; 4 weeks in culture
  dexamethasone concentration at which binucleated beating cells appeared: 10^−7-10^−6 M
[5]; 14 days
  dexamethasone concentration at which myotubes appeared: 10^−9-10^−6 M
[5]; after two weeks treatment
  dexamethasone concentration at which most adipocytes appeared: 10^−8-10^−6 M

## PDGF-AA: Platelet-derived growth factor-AA
[1]
  Proliferation, Progenitor: number of times the agent increased the DNA content per well versus its respective control: 16 times
  Phenotypic Expression, Progenitor: All+
[2]
  Proliferation, Pluripotent: number of times the agent increased the DNA content per well versus its respective control: 16^b times
  activity on pluripotent and progenitor stem cells, in words: stimulated proliferation in pluripotent cells and in all lineages of progenitor cells
  Phenotypic Expression, Pluripotent: 0

## IGF-II: insulin-like growth factor-II
[1]
  Proliferation, Progenitor: number of times the agent increased the DNA content per well versus its respective control: 1 times
  Phenotypic Expression, Progenitor: All+++
[2]
  Proliferation, Pluripotent: number of times the agent increased the DNA content per well versus its respective control: 1 times
  activity on pluripotent and progenitor stem cells, in words: stimulated lineage-progression in all progenitor cells, but had no measurable effect on pluripotent cells
  Phenotypic Expression, Pluripotent: 0

## PDGF-BB: platelet-derived growth factor-BB
[1]
  Proliferation, Progenitor: number of times the agent increased the DNA content per well versus its respective control: 19 times
  Phenotypic Expression, Progenitor: All+
[2]
  Proliferation, Pluripotent: number of times the agent increased the DNA content per well versus its respective control: 19 times
  activity on pluripotent and progenitor stem cells, in words: stimulated proliferation in pluripotent cells and in all lineages of progenitor cells
  Phenotypic Expression, Pluripotent: 0

## b-FGF: Basic-fibroblast growth factor
[1]
  Proliferation, Progenitor: number of times the agent increased the DNA content per well versus its respective control: 1 times
  Phenotypic Expression, Progenitor: F++
[2]
  Proliferation, Pluripotent: number of times the agent increased the DNA content per well versus its respective control: 1 times
  activity on pluripotent and progenitor stem cells, in words: stimulated lineage-progression in fibrogenic progenitor cells, inhibited lineage-progression in all other progenitor cells, and had no effect on pluripotent cells
  Phenotypic Expression, Pluripotent: 0
